# According to ChEMBL document CHEMBL4043168, “The design and SAR of a novel series of 2-aminopyridine based LRRK2 inhibitors” (Bioorg Med Chem Lett, 2017):
# Columns and labels:
# [1] = biological target: T1, Serine/threonine-protein kinase LATS1 (Homo sapiens) (UniProt O95835); assay: Inhibition of LATS1 conserved Lys2 (DIKPDNILIDR) in human PBMC at 0.1 uM
# T1 sequence (whole entry): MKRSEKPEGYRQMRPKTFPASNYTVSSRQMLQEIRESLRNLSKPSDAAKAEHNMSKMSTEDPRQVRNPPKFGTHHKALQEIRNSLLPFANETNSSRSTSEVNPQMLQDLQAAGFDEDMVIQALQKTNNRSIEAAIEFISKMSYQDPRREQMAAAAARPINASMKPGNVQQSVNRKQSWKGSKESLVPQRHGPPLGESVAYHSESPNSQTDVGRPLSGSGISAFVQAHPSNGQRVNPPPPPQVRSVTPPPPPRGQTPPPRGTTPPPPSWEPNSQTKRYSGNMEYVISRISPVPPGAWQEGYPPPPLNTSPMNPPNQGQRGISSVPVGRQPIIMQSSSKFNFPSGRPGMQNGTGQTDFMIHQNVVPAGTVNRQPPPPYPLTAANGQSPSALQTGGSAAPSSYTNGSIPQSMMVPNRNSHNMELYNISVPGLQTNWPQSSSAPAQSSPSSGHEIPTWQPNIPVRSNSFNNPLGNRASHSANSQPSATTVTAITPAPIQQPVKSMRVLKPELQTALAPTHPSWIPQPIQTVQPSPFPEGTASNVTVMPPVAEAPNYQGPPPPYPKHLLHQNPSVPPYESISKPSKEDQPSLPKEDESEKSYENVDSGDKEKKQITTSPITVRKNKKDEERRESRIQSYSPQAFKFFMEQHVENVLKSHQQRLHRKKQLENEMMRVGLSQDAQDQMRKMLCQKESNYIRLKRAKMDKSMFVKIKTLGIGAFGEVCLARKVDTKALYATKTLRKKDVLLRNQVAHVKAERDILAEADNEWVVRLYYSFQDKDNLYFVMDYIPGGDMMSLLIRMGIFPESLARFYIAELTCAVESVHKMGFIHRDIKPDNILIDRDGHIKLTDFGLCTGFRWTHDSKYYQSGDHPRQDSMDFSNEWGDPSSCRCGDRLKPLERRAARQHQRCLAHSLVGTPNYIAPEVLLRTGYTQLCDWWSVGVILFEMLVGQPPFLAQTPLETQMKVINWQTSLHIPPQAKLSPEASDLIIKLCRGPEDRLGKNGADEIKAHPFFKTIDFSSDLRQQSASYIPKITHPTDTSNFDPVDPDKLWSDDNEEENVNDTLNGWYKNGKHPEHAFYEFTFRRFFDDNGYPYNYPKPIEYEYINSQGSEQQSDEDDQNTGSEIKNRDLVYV
# [2] = biological target: Serine/threonine-protein kinase LATS2 (Homo sapiens) (UniProt Q9NRM7); assay: Inhibition of LATS2 conserved Lys2 (DIKPDNILIDLDGHIK) in human PBMC at 0.1 uM
# Serine/threonine-protein kinase LATS2 (Homo sapiens), sequence (Q9NRM7 whole entry): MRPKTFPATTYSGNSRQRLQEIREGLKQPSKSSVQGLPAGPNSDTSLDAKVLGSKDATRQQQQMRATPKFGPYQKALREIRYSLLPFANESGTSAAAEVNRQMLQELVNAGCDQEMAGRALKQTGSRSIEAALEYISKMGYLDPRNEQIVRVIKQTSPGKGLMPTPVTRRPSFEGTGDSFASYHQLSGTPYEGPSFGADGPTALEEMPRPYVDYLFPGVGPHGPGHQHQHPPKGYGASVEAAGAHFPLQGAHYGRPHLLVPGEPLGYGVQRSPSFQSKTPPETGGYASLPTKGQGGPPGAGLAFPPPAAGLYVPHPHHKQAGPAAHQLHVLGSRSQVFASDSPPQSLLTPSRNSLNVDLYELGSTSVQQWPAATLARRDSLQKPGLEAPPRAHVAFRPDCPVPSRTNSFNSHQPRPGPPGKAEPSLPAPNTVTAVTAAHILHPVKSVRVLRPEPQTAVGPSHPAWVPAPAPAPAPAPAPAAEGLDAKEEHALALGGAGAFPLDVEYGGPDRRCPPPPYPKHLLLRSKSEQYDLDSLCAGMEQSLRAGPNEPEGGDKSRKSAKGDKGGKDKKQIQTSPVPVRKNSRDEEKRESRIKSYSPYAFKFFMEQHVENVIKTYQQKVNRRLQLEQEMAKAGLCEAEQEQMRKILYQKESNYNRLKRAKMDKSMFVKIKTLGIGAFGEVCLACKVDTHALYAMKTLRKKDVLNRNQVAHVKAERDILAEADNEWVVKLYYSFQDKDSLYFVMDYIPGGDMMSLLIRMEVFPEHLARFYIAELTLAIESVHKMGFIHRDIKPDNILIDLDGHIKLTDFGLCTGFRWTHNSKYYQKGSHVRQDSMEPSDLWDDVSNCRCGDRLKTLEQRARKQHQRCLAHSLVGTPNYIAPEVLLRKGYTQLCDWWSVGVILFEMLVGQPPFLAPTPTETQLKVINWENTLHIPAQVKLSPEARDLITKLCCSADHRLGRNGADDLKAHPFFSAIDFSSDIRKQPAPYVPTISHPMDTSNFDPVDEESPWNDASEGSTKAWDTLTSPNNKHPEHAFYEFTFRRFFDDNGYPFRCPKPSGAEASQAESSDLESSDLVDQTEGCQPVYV
# [3] = biological target: Phosphatidylinositol 5-phosphate 4-kinase type-2 alpha (Homo sapiens) (UniProt P48426); assay: Inhibition of PIP4K2A ATP binding site (AKELPTLKDNDFINEGQK) in human PBMC at 0.1 uM
# Phosphatidylinositol 5-phosphate 4-kinase type-2 alpha (Homo sapiens), sequence (P48426 whole entry): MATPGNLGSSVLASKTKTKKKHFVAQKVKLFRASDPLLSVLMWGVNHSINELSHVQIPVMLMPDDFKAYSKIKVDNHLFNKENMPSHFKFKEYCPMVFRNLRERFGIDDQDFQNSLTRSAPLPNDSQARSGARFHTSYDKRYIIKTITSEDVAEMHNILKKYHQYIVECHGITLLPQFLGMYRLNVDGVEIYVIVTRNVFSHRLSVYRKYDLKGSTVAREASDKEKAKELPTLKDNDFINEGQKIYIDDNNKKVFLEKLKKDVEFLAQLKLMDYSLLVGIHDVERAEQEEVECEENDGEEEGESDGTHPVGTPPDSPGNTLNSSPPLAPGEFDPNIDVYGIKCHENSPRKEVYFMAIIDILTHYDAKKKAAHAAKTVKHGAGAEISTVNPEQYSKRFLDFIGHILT
# [4] = biological target: Tyrosine-protein kinase ABL1 (Homo sapiens) (UniProt P00519); assay: Inhibition of ABL labeling at activation Loop (LMTGDTYTAHAGAKFPIK) in human PBMC at 0.1 uM
# Tyrosine-protein kinase ABL1 (Homo sapiens), sequence (P00519 whole entry): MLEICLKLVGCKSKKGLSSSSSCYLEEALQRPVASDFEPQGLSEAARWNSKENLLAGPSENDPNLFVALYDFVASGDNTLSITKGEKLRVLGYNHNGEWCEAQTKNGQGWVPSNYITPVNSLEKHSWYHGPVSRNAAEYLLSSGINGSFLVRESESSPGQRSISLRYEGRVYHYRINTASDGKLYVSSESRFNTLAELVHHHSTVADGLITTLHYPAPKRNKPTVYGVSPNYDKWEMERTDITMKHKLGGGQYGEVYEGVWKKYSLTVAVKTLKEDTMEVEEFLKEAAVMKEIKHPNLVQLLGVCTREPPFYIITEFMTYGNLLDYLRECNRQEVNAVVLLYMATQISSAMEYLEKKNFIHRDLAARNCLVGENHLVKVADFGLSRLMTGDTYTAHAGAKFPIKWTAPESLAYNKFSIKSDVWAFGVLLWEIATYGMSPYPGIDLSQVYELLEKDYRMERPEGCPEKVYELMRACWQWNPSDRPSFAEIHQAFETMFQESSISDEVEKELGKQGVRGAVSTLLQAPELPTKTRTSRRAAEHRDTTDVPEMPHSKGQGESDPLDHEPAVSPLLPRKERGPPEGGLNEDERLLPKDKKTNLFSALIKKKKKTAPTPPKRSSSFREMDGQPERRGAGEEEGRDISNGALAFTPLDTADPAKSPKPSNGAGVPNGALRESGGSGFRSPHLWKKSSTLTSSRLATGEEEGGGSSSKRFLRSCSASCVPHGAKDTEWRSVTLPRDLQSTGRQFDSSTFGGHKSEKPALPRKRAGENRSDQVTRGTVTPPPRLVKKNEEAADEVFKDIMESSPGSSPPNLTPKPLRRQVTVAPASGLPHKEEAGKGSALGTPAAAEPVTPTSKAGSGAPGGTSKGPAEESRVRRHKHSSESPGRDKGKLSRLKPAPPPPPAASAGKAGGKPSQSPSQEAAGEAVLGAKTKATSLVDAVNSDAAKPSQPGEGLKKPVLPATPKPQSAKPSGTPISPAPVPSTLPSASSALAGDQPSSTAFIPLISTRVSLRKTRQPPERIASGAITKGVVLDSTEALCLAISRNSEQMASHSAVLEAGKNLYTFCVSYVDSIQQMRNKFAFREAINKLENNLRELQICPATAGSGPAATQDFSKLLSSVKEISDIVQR
# [5] = biological target: Cyclin-dependent kinase 7 (Homo sapiens) (UniProt P50613); assay: Inhibition of CDK7 labeling at conserved Lys2 (DLKPNNLLLDENGVLK) in human PBMC at 1 uM
# [6] = biological target: Tyrosine-protein kinase Fer (Homo sapiens) (UniProt P16591); assay: Inhibition of FER conserved Lys2 (TSVAVKTCKEDLPQELK) in human PBMC at 0.1 uM
# [7] = biological target: Serine/threonine-protein kinase Nek6 (Homo sapiens) (UniProt Q9HC98); assay: Inhibition of NEK6 conserved Lys2 (DIKPANVFITATGVVK) in human PBMC at 0.1 uM
# [8] = biological target: Leucine-rich repeat serine/threonine-protein kinase 2 (Homo sapiens, UniProt Q5S007); assay: Inhibition wild type LRRK2 (unknown origin) Ser935 phosphorylation in HEK293 cells; type: cell-based
# Leucine-rich repeat serine/threonine-protein kinase 2, sequence (Q5S007 whole entry): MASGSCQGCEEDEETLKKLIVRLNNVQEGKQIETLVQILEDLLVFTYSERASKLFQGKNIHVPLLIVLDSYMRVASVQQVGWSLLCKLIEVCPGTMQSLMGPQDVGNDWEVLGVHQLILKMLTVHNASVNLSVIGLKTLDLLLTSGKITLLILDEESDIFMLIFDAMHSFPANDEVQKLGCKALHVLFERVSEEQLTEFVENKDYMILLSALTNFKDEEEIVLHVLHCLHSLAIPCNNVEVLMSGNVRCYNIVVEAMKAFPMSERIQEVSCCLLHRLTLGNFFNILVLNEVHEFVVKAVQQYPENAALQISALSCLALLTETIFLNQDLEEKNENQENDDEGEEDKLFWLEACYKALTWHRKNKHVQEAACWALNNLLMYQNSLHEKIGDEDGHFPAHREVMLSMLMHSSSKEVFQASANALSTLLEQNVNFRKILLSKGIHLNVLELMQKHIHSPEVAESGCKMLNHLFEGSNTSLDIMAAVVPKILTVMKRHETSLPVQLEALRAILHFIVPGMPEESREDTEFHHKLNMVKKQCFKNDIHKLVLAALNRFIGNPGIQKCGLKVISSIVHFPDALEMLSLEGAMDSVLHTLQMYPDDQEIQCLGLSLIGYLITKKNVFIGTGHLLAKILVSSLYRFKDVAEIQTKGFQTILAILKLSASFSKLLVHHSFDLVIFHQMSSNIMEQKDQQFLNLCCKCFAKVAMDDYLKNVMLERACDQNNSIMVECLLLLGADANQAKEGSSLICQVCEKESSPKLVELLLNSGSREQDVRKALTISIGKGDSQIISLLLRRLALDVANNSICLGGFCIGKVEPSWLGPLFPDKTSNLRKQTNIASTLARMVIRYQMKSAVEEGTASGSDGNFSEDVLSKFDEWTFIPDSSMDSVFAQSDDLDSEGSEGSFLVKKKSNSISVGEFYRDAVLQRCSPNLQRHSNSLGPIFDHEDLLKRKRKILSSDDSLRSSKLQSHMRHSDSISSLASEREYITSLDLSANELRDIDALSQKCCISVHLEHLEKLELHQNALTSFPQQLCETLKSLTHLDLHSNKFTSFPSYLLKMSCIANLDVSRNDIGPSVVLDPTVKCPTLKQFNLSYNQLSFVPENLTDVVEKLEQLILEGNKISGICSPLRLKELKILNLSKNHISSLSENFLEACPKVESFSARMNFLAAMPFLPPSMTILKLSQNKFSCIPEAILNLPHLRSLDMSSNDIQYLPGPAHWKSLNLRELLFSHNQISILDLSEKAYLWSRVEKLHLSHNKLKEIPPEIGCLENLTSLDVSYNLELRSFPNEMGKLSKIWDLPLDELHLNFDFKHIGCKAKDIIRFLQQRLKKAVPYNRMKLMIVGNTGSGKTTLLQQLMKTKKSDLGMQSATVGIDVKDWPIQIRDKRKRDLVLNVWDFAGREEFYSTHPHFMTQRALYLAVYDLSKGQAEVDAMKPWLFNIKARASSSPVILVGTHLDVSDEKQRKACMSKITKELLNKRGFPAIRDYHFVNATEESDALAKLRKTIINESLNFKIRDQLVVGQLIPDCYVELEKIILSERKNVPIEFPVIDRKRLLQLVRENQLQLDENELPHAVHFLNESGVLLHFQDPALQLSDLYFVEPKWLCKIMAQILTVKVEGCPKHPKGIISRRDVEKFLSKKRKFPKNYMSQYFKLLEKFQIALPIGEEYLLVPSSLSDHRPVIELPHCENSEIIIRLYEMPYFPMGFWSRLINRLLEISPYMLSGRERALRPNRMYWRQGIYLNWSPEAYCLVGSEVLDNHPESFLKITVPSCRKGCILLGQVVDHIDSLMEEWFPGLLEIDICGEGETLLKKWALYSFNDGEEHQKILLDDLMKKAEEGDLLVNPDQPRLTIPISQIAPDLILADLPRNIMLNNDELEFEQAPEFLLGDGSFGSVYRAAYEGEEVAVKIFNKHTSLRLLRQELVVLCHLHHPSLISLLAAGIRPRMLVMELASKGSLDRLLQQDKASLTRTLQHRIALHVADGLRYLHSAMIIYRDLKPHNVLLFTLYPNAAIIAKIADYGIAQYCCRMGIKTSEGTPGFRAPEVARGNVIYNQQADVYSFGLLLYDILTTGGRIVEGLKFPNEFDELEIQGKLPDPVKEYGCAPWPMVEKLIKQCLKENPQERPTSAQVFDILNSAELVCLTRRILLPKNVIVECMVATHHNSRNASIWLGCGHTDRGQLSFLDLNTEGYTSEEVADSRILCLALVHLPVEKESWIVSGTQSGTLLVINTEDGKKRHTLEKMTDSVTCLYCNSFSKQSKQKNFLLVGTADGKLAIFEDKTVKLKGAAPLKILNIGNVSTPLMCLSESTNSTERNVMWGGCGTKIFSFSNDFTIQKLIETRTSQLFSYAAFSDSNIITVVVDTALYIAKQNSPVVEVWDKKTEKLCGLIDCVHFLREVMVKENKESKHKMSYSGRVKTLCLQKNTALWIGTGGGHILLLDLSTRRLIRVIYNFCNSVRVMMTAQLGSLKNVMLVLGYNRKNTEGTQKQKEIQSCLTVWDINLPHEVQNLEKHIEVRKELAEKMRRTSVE
# [9] = biological target: Serine/threonine-protein kinase TBK1 (Homo sapiens) (UniProt Q9UHD2); assay: Inhibition of TBK1 conserved Lys2 (DIKPGNIMR) in human PBMC at 1 uM
# [10] = biological target: Serine/threonine-protein kinase PLK1 (Homo sapiens) (UniProt P53350); assay: Inhibition of PLK1 conserved Lys1 (CFEISDADTKEVFAGKIVPK) in human PBMC at 1 uM
# [11] = biological target: T2, Interleukin-1 receptor-associated kinase 4 (Homo sapiens) (UniProt Q9NWZ3); assay: Inhibition of IRAK4 conserved Lys2 (DIKSANILLDEAFTAK) in human PBMC at 1 uM
# T2 sequence (whole entry): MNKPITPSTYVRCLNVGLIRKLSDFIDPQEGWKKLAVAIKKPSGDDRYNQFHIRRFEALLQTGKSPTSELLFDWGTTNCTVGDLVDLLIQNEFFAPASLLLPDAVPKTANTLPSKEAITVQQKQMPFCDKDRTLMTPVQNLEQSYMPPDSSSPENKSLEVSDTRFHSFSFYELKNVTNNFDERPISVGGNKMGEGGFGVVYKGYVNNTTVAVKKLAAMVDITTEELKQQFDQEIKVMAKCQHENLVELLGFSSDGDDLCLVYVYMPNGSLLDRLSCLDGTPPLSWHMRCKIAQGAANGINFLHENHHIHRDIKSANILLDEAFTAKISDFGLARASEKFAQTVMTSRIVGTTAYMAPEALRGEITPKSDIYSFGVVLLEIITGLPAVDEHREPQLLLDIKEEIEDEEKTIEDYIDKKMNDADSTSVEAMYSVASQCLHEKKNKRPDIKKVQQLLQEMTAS
# [12] = biological target: T3, Serine/threonine-protein kinase 4 (Homo sapiens) (UniProt Q13043); assay: Inhibition of MST1 conserved Lys2 (DIKAGNILLNTEGHAK) in human PBMC at 0.1 uM
# T3 sequence (whole entry): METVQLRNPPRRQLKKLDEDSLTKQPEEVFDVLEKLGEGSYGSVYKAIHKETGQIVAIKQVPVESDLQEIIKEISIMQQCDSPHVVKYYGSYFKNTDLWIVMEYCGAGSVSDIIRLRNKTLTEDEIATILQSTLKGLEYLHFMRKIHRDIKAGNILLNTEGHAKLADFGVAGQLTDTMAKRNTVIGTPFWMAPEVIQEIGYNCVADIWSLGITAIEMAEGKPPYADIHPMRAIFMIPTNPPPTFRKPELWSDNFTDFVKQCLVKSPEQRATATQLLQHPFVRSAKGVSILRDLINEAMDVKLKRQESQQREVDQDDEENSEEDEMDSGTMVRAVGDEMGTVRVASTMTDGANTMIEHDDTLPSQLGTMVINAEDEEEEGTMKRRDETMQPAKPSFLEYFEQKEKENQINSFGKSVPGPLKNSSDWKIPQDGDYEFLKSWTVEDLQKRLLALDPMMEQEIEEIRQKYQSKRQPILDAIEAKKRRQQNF
smiles,measurement,setting,value
CC(C)n1cc(-c2cc(-c3ccc(CN4CCOCC4)cc3)cnc2N)nn1,inhibition,[1],34.9%
same,inhibition,[2],3%
same,inhibition,[3],10.3%
same,inhibition,[4],-5.2%
same,inhibition,[5],-5.5%
same,inhibition,[6],-1.2%
same,inhibition,[7],-4.8%
same,IC50,[8],2100 nM
same,inhibition,[9],11%
same,inhibition,[10],16%
same,inhibition,[11],-2.5%
same,inhibition,[12],1.3%
